# Source: ChEMBL document CHEMBL3785084, “Rational modification of the lead molecule: Enhancement in the anticancer and dihydrofolate reductase inhibitory activity” (Bioorg Med Chem Lett, 2016)
# Key:
# [1] = Cytotoxicity against human RPMI8226 cells assessed as cell growth at 10^-5 M after 48 hrs by sulforhodamine B assay; type: functional; details: RPMI-8226, 48 h, read-out: Activity
# [2] = Cytotoxicity against human OVCAR4 cells assessed as cell growth at 10^-5 M after 48 hrs by sulforhodamine B assay; type: functional; details: OVCAR-4, 48 h, read-out: Activity
# [3] = Cytotoxicity against human IGROV1 cells assessed as cell growth at 10^-5 M after 48 hrs by sulforhodamine B assay; type: functional; details: IGROV-1, 48 h, read-out: Activity
# [4] = Cytotoxicity against human BT549 cells assessed as cell growth at 10^-5 M after 48 hrs by sulforhodamine B assay; type: functional; details: BT-549, 48 h, read-out: Activity
# [5] = Cytotoxicity against human NCI-ADR-RES cells assessed as cell growth at 10^-5 M after 48 hrs by sulforhodamine B assay; type: functional; details: read-out: Activity
# [6] = Cytotoxicity against human SNB75 cells assessed as cell growth at 10^-5 M after 48 hrs by sulforhodamine B assay; type: functional; details: SNB-75, 48 h, read-out: Activity
# CCRF-CEM [7] = test: Cytotoxicity against human CCRF-CEM cells assessed as cell growth at 10^-5 M after 48 hrs by sulforhodamine B assay; type: functional; details: read-out: Activity
# A549 = test: Cytotoxicity against human A549 cells assessed as cell growth at 10^-5 M after 48 hrs by sulforhodamine B assay; type: functional; details: A549, 48 h, read-out: Activity
# [8] = Cytotoxicity against human TK10 cells assessed as cell growth at 10^-5 M after 48 hrs by sulforhodamine B assay; type: functional; details: TK-10, 48 h, read-out: Activity
# [9] = Cytotoxicity against human MOLT4 cells assessed as cell growth at 10^-5 M after 48 hrs by sulforhodamine B assay; type: functional; details: MOLT-4, 48 h, read-out: Activity
# SN12C = test: Cytotoxicity against human SN12C cells assessed as cell growth at 10^-5 M after 48 hrs by sulforhodamine B assay; type: functional; details: read-out: Activity
# [10] = Cytotoxicity against human HCT15 cells assessed as cell growth at 10^-5 M after 48 hrs by sulforhodamine B assay; type: functional; details: HCT-15, 48 h, read-out: Activity
# [11] = Cytotoxicity against human LOXIMVI cells assessed as cell growth at 10^-5 M after 48 hrs by sulforhodamine B assay; type: functional; details: LOX IMVI, read-out: Activity
# [12] = Cytotoxicity against human HCC2998 cells assessed as cell growth at 10^-5 M after 48 hrs by sulforhodamine B assay; type: functional; details: HCC 2998, 48 h, read-out: Activity
# [13] = Cytotoxicity against human SNB19 cells assessed as cell growth at 10^-5 M after 48 hrs by sulforhodamine B assay; type: functional; details: SNB-19, 48 h, read-out: Activity
# MCF7 = test: Cytotoxicity against human MCF7 cells assessed as cell growth at 10^-5 M after 48 hrs by sulforhodamine B assay; type: functional; details: MCF7, 48 h, read-out: Activity
# A498 = test: Cytotoxicity against human A498 cells assessed as cell growth at 10^-5 M after 48 hrs by sulforhodamine B assay; type: functional; details: A498, 48 h, read-out: Activity
# [14] = Cytotoxicity against human DU145 cells assessed as cell growth at 10^-5 M after 48 hrs by sulforhodamine B assay; type: functional; details: DU-145, 48 h, read-out: Activity
# ACHN = test: Cytotoxicity against human ACHN cells assessed as cell growth at 10^-5 M after 48 hrs by sulforhodamine B assay; type: functional; details: read-out: Activity
# [15] = Cytotoxicity against human UACC62 cells assessed as cell growth at 10^-5 M after 48 hrs by sulforhodamine B assay; type: functional; details: UACC-62, 48 h, read-out: Activity
# MDA-MB-435 [16] = test: Cytotoxicity against human MDA-MB-435 cells assessed as cell growth at 10^-5 M after 48 hrs by sulforhodamine B assay; type: functional; details: MDA-MB-435, 48 h, read-out: Activity
# [17] = Cytotoxicity against human SF539 cells assessed as cell growth at 10^-5 M after 48 hrs by sulforhodamine B assay; type: functional; details: SF-539, 48 h, read-out: Activity
# SR = test: Cytotoxicity against human SR cells after 48 hrs by sulforhodamine B assay; type: functional
# U-251 = test: cells; details: Homo sapiens, U-251, 48 h
# Description: Cytotoxicity against human U251 cells after 48 hrs by sulforhodamine B assay
# SK-MEL-28 = test: cells; details: Homo sapiens, SK-MEL-28, 48 h
# Description: Cytotoxicity against human SK-MEL-28 cells after 48 hrs by sulforhodamine B assay
# cells [18] = details: Homo sapiens, TK-10, 48 h
# Description: Cytotoxicity against human TK10 cells after 48 hrs by sulforhodamine B assay
# EKVX = test: cells; details: Homo sapiens, 48 h
# Description: Cytotoxicity against human EKVX cells after 48 hrs by sulforhodamine B assay
# CCRF-CEM [19] = test: cells; details: Homo sapiens, 48 h
# Description: Cytotoxicity against human CCRF-CEM cells after 48 hrs by sulforhodamine B assay
# cells [20] = details: Homo sapiens, SF-295, 48 h
# Description: Cytotoxicity against human SF295 cells after 48 hrs by sulforhodamine B assay
# cells [21] = details: Homo sapiens, SW-620, 48 h
# Description: Cytotoxicity against human SW620 cells after 48 hrs by sulforhodamine B assay
# MDA-MB-435 [22] = test: cells; details: Homo sapiens, MDA-MB-435, 48 h
# Description: Cytotoxicity against human MDA-MB-435 cells after 48 hrs by sulforhodamine B assay
# cells [23] = details: Homo sapiens, COLO 205, 48 h
# Description: Cytotoxicity against human COLO205 cells after 48 hrs by sulforhodamine B assay
# cells [24] = details: Homo sapiens, OVCAR-4, 48 h
# Description: Cytotoxicity against human OVCAR4 cells after 48 hrs by sulforhodamine B assay
# cells [25] = details: Homo sapiens, SNB-19, 48 h
# Description: Cytotoxicity against human SNB19 cells after 48 hrs by sulforhodamine B assay
# cells [26] = details: Homo sapiens, LOX IMVI, 48 h
# Description: Cytotoxicity against human LOXIMVI cells after 48 hrs by sulforhodamine B assay
# KM12 = test: cells; details: Homo sapiens, KM12, 48 h
# Description: Cytotoxicity against human KM12 cells after 48 hrs by sulforhodamine B assay
# cells [27] = details: Homo sapiens, UO-31, 48 h
# Description: Cytotoxicity against human UO31 cells after 48 hrs by sulforhodamine B assay
# cells [28] = details: Homo sapiens, OVCAR-8, 48 h
# Description: Cytotoxicity against human OVCAR8 cells after 48 hrs by sulforhodamine B assay
smiles,measurement,setting,value
O=C1NC(=O)C(=Cc2cn(CC(O)Cn3cc(C=C4C(=O)NC(=O)NC4=O)c4ccccc43)c3ccccc23)C(=O)N1,growth at 10 µM,[1],98.5%
same,growth at 10 µM,[2],100%
same,growth at 10 µM,[3],97.3%
same,growth at 10 µM,[4],82.6%
same,growth at 10 µM,[5],99.5%
same,growth at 10 µM,[6],90.2%
same,growth at 10 µM,CCRF-CEM [7],105%
same,growth at 10 µM,A549,85.9%
same,growth at 10 µM,[8],105%
same,growth at 10 µM,[9],110%
same,growth at 10 µM,SN12C,107%
same,growth at 10 µM,[10],103%
same,growth at 10 µM,[11],98%
same,growth at 10 µM,[12],94.6%
same,growth at 10 µM,[13],103%
same,growth at 10 µM,MCF7,91.1%
same,growth at 10 µM,A498,106%
same,growth at 10 µM,[14],104%
same,growth at 10 µM,ACHN,105%
same,growth at 10 µM,[15],106%
same,growth at 10 µM,MDA-MB-435 [16],109%
same,growth at 10 µM,[17],108%
O=C1Nc2ccccc2/C1=C/c1cn(CC(O)Cn2cc(/C=C3\C(=O)Nc4ccccc43)c3ccccc32)c2ccccc12 (stereo unspecified),GI50,SR,0.39 µM
same,CC50,SR; read-out: LC50 (the source's name),> 100 µM
same,GI50,U-251,1.5 µM
same,TGI,U-251,2.9 µM
same,CC50,U-251; read-out: LC50,5.6 µM
same,GI50,SK-MEL-28,1.7 µM
same,TGI,SK-MEL-28,3.5 µM
same,CC50,SK-MEL-28; read-out: LC50,6.9 µM
same,GI50,cells [18],2.7 µM
same,TGI,cells [18],5.4 µM
same,CC50,cells [18]; read-out: LC50,14.4 µM
same,growth at 10 µM,[1],-41.7%
same,GI50,EKVX,1.8 µM
same,TGI,EKVX,3.7 µM
same,CC50,EKVX; read-out: LC50,7.8 µM
same,growth at 10 µM,[2],-51.7%
same,growth at 10 µM,[3],-67.4%
same,growth at 10 µM,[4],-55.3%
same,GI50,CCRF-CEM [19],2.8 µM
same,TGI,CCRF-CEM [19],13.4 µM
same,CC50,CCRF-CEM [19]; read-out: LC50,> 100 µM
same,growth at 10 µM,[5],31.8%
same,growth at 10 µM,[6],-95.9%
same,GI50,cells [20],1.6 µM
same,TGI,cells [20],3.2 µM
same,CC50,cells [20]; read-out: LC50,6.4 µM
same,growth at 10 µM,CCRF-CEM [7],-30.6%
same,growth at 10 µM,A549,-11.6%
same,growth at 10 µM,[8],-15.1%
same,GI50,cells [21],1.3 µM
same,TGI,cells [21],3.4 µM
same,CC50,cells [21]; read-out: LC50,9.04 µM
same,growth at 10 µM,[9],-29.4%
same,growth at 10 µM,SN12C,-53.6%
same,growth at 10 µM,[10],-69.8%
same,GI50,MDA-MB-435 [22],1.8 µM
same,TGI,MDA-MB-435 [22],3.4 µM
same,CC50,MDA-MB-435 [22]; read-out: LC50,6.6 µM
same,GI50,cells [23],1.6 µM
same,TGI,cells [23],3.6 µM
same,GI50,cells [24],1.8 µM
same,TGI,cells [24],3.9 µM
same,growth at 10 µM,[11],-84.5%
same,GI50,cells [25],1.2 µM
same,TGI,cells [25],3.8 µM
same,CC50,cells [25]; read-out: LC50,> 100 µM
same,growth at 10 µM,[12],-16.9%
same,growth at 10 µM,[13],-43%
same,GI50,cells [26],0.32 µM
same,TGI,cells [26],1.3 µM
same,CC50,cells [26]; read-out: LC50,4.1 µM
same,GI50,KM12,1.4 µM
same,TGI,KM12,3.3 µM
same,GI50,cells [27],1.2 µM
same,TGI,cells [27],2.9 µM
same,CC50,cells [27]; read-out: LC50,6.7 µM
same,growth at 10 µM,MCF7,-67.5%
same,growth at 10 µM,A498,-73.2%
same,growth at 10 µM,[14],-90.5%
same,GI50,cells [28],2.3 µM
same,TGI,cells [28],4.7 µM
same,growth at 10 µM,ACHN,-68.4%
same,growth at 10 µM,[15],-75.2%
same,growth at 10 µM,MDA-MB-435 [16],-87.6%
same,growth at 10 µM,[17],-77.7%
CC1=NN(c2cccc(Cl)c2)C(=O)/C1=C\c1cn(CC(O)Cn2cc(/C=C3\C(=O)N(c4cccc(Cl)c4)N=C3C)c3ccccc32)c2ccccc12,growth at 10 µM,[1],109%
same,growth at 10 µM,[2],103%
same,growth at 10 µM,[3],104%
same,growth at 10 µM,[4],109%
same,growth at 10 µM,[5],111%
same,growth at 10 µM,[6],93.4%
same,growth at 10 µM,CCRF-CEM [7],106%
same,growth at 10 µM,A549,94.1%
same,growth at 10 µM,[8],118%
same,growth at 10 µM,[9],104%
same,growth at 10 µM,SN12C,99.7%
same,growth at 10 µM,[10],106%
same,growth at 10 µM,[11],102%
same,growth at 10 µM,[12],102%
same,growth at 10 µM,[13],107%
same,growth at 10 µM,MCF7,97.9%
same,growth at 10 µM,A498,119%
same,growth at 10 µM,[14],111%
same,growth at 10 µM,ACHN,107%
same,growth at 10 µM,[15],112%
same,growth at 10 µM,MDA-MB-435 [16],106%
same,growth at 10 µM,[17],94.2%
CN1C(=O)C(=Cc2cn(CC(O)Cn3cc(C=C4C(=O)N(C)C(=O)N(C)C4=O)c4ccccc43)c3ccccc23)C(=O)N(C)C1=O,growth at 10 µM,[1],86.2%
same,growth at 10 µM,[2],97.2%
same,growth at 10 µM,[3],78.8%
same,growth at 10 µM,[4],92.3%
same,growth at 10 µM,[5],105%
same,growth at 10 µM,[6],72.3%
same,growth at 10 µM,CCRF-CEM [7],98.3%
same,growth at 10 µM,A549,96.8%
same,growth at 10 µM,[8],117%
same,growth at 10 µM,[9],106%
same,growth at 10 µM,SN12C,99.1%
same,growth at 10 µM,[10],105%
same,growth at 10 µM,[11],97%
same,growth at 10 µM,[12],104%
same,growth at 10 µM,[13],102%
same,growth at 10 µM,MCF7,91.8%
same,growth at 10 µM,A498,98.4%
same,growth at 10 µM,[14],106%
same,growth at 10 µM,ACHN,93.7%
same,growth at 10 µM,[15],88.3%
same,growth at 10 µM,MDA-MB-435 [16],107%
same,growth at 10 µM,[17],103%
